Experimental data reported in US20200282010A1, “IMMUNOGENIC COMPOSITIONS AND USES THEREFOR” (Epiaxis Therapeutics Pty Ltd, priority 2017, published 2020).

Key:
[1] = biological target: recombinant PKC-θ (Homo sapiens, UniProt Q04759); test: PKC-θ kinase activity (PKC kinase activity kit, ENZO life sciences); format: biochemical; settings: FIG. 1F
Excerpt: FIG. 1 is a graphical, schematic and photographic representation showing that PKC-θ can be targeted for therapeutic intervention. A) Depicts the strength of binding of recombinant purified His6-PKC-θ to increasing concentrations of different subunits and subunit combinations (α2, α2β1, and β1) of the importin α/β heterodimer nuclear transport receptor using an AlphaScreen® binding assay as described in Wagstaff et al. (2011. Journal of Biomolecular Screening 16 (2):192-200). B-C) Depicts protein structure of PKC-θ indicating binding locations for the PKC-θ peptide inhibitor, PKCθi (RKEIDPPFRPKVK), including the nuclear localization sequence (NLS) of PKC-θ. D) The specificity of PKCθi was examined on cells treated with this peptide inhibitor. Cells were screened with primary antibodies to PKC-θ (T538p), PKC-β2, PKC-β1, PKC-α, PKC-ε and PKC-γ. The nuclear to cytoplasmic fluorescence ratio (Fn/c) using the equation: Fn/c=(Fn−Fb)/(Fc−Fb), where Fn is nuclear fluorescence, Fc is cytoplasmic fluorescence, and Fb is background fluorescence was used to determine the impact on nuclear translocation/localization. […] EC^50 of inhibitors calculated using GraphPad PRISM software. F) The PKC-θ kinase activity was measured using the PKC kinase activity kit from ENZO life sciences and recombinant PKC-θ; C27 is an inhibitor of PKC-θ kinase activity, which is disclosed in Jimenez et al. (2013. […]

[2] = system: CD8^+ T-cells of melanoma patient liquid biopsies; test: Immunofluorescence of EOMES, TBET and PD-1 (exhaustion signature) in patient CD8+ T-cells; format: cell-based, human; settings: CR, SD and PD cohorts, vehicle or PMA/CI, FIG. 4
Excerpt: FIG. 4 is graphical representation showing expression of EOMES, TBET and PD-1 in CD8^+ T-cells of melanoma patient liquid biopsies in the presence and absence of PKCθi peptide inhibitor. A) CD8^+ T-cells were isolated from melanoma patient liquid biopsies (CR=complete response, SD=Stable Disease, PD=progression of disease) and were stimulated with PMA/CI and pre-clinically screened with either vehicle control or PKCθi peptide inhibitor. Samples were then fixed and immunofluorescence microscopy was performed on these cells with primary antibodies for EOMES, TBET, and PD-1. Representative images for each dataset are shown. Graph represents the TCFI for PD1, TNFI for EOMES and TNFI for TBET measured using ImageJ to select the nucleus minus background (n=>20 cells/sample). Graphs depicting the % inhibition or induction based on protein expression where also plotted for each protein target relative to untreated sample.
Metastatic Melanoma Biopsies were pre-enriched using the RosetteSep™ method to isolate CTCs by employing the RosetteSep™ Human CD8 enrichment Kit (15063, StemCell Technologies) to isolate CD8+ cells and red blood cells, using density gradient centrifugation with SepMate™-50 (IVD) density gradient tubes (85450, StemCell Technologies) and Lymphoprep™ density gradient medium (07861, StemCell Technologies). […] Digital images were analysed using ImageJ software (ImageJ, NIH, Bethesda, Md., USA) to determine the either the Total Nuclear Fluorescent Intensity (TNFI), the Total Cytoplasmic Fluorescent Intensity (TCFI) or total Fluorescent Intensity (TFI). The plot-profile feature of ImageJ was used to plot the fluorescence signal intensity along a single line spanning the nucleus (n=5 lines per a nucleus, 5 individual cells) using the average fluorescent signal intensity for the indicated pair of antibodies was plotted for each point on the line with SE. […] For each plot-profile the PCC was determined. […]

recombinant PKC-θ, sequence (Q04759 whole entry): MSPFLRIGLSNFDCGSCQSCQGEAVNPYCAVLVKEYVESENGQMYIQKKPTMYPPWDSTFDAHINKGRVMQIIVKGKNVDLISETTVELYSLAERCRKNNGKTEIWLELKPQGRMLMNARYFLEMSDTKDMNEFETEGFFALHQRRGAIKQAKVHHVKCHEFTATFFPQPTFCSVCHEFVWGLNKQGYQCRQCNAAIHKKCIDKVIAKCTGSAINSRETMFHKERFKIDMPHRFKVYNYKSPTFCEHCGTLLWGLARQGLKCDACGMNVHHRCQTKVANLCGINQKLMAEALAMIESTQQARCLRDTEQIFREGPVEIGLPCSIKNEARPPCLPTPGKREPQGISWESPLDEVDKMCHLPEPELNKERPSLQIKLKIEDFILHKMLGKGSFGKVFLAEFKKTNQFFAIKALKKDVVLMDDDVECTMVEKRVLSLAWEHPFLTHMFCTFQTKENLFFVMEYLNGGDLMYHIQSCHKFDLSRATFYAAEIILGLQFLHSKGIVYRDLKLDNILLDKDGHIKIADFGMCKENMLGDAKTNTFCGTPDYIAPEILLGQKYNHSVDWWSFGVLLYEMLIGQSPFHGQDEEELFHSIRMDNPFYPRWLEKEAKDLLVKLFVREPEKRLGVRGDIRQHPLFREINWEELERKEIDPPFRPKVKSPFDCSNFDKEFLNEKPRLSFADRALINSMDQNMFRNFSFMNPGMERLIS

- PKC-θ catalytic activity [1]: without impacting
Sequence: RKEIDPPFRPKVK [PKCθi]
- TBET expression [2]: enhancing
- expression of EOMES ([2]; inhibitor 8 mm): inhibiting expression
- expression of PD-1 ([2]; inhibitor 8 mm): inhibiting expression
